pIC50: −log10 of the molar value.
Key:
Tryptase = Tryptase (Homo sapiens, UniProt Q9BZJ3+Q15661+Q9NRR2); assay: Inhibitory activity was measured against human mast cell tryptase.; assay type: protein assay
Prothrombin = Prothrombin (Homo sapiens, UniProt P00734); assay: Inhibitory activity was measured against thrombin.
Coagulation factor X = Coagulation factor X (Homo sapiens, UniProt P00742); assay: Inhibitory activity was measured against Coagulation factor X
[1] = biological target: Urokinase-type plasminogen activator (Homo sapiens, UniProt P00749); assay: Inhibitory activity was measured against urokinase.
Plasminogen = Plasminogen (Homo sapiens, UniProt P00747); assay: Inhibitory activity was measured against plasmin.
Neutrophil elastase = biological target: T1, Neutrophil elastase (Homo sapiens, UniProt P08246); assay: Inhibitory activity was measured against human leukocyte elastase.
T1 sequence (P08246 whole entry): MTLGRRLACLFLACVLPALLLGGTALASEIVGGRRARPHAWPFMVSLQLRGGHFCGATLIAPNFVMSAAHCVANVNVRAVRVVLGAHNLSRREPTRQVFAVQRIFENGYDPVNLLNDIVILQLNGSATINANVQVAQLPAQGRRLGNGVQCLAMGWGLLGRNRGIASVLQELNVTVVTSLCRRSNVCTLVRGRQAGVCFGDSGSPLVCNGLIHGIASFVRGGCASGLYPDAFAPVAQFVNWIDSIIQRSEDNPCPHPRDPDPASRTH

Sequence of Plasminogen (P00747 97-580 limits assumed): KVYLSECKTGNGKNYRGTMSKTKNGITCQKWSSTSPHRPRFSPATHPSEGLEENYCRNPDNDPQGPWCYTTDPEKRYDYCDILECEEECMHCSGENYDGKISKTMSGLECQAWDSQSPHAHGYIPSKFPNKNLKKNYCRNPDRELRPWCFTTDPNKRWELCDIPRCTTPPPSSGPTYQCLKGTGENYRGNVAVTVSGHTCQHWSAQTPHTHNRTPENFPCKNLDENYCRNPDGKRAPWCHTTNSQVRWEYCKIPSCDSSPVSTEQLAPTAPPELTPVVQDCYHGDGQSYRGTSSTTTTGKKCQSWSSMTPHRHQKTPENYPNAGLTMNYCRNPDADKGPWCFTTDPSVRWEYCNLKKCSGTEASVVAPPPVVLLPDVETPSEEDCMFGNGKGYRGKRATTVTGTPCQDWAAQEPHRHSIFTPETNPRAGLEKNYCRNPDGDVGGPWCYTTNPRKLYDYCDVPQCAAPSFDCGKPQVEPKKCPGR
Sequence of Plasminogen (P00747 581-810 limits assumed): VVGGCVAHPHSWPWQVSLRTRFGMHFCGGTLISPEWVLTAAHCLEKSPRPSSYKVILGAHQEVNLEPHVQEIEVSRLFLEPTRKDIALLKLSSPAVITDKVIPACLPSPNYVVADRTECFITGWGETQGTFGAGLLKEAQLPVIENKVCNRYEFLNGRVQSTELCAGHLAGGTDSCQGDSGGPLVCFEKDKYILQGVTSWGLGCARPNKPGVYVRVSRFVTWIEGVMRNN
Sequence of Coagulation factor X (P00742 41-179 limits assumed): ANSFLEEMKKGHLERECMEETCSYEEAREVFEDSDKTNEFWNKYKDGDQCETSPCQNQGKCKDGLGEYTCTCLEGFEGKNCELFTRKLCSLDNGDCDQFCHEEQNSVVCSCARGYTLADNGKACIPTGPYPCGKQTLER
Sequence of Coagulation factor X (P00742 235-488 limits assumed): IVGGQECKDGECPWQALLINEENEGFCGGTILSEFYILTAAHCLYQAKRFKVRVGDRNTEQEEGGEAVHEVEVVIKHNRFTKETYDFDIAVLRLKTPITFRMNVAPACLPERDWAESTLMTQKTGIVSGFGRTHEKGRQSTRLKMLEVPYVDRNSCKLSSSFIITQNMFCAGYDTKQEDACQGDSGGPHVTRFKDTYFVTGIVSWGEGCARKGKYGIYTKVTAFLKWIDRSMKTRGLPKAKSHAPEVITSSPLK

Structure (SMILES) | IC50 (Tryptase) | further results
O=C(NCc1ccc(C(=O)OCN2C(=O)c3ccccc3S2(=O)=O)cc1)Oc1ccccc1 | 630 nM | 
O=C(Nc1cccc(C(=O)OCN2C(=O)c3ccccc3S2(=O)=O)c1)OCc1ccccc1 | > 33000 nM | 
O=C(NCc1ccc(C(=O)OCN2C(=O)c3ccccc3S2(=O)=O)cc1)OCc1ccccc1 | 352 nM | 
O=C(CCCCCNC(=O)OCc1ccccc1)OCN1C(=O)c2ccccc2S1(=O)=O | 436 nM | 
CC(C)(C)OC(=O)N[C@H](CCCCNC(=O)OCc1ccccc1)C(=O)OCN1C(=O)c2ccccc2S1(=O)=O | 12200 nM | 
O=C(CCCNC(=O)OCc1ccccc1)OCN1C(=O)c2ccccc2S1(=O)=O | 349 nM | 
O=C(CCc1ccccc1)Nc1ccc(C(=O)OCN2C(=O)c3ccccc3S2(=O)=O)cc1 | 170 nM | 
O=C(NCc1ccc(C(=O)OCN2C(=O)c3ccccc3S2(=O)=O)cc1)Nc1ccccc1 | 157 nM | 
O=C(NCc1ccccc1)Nc1ccc(C(=O)OCN2C(=O)c3ccccc3S2(=O)=O)cc1 | 950 nM | 
O=C(NCCc1ccccc1)c1ccc(C(=O)OCN2C(=O)c3ccccc3S2(=O)=O)cc1 | 679 nM | 
O=C(CCCCNC(=O)OCc1ccccc1)OCN1C(=O)c2ccccc2S1(=O)=O | 110 nM | pIC50 (Prothrombin): < 4.48; pIC50 (Coagulation factor X): < 4.48; pIC50 [1]: < 4.48; pIC50 (Plasminogen): 4.48; pIC50 (Neutrophil elastase): 5.84
O=C(CNC(=O)OCc1ccccc1)OCN1C(=O)c2ccccc2S1(=O)=O | 6940 nM | 
O=C(CCNC(=O)OCc1ccccc1)OCN1C(=O)c2ccccc2S1(=O)=O | 854 nM | pIC50 (Prothrombin): < 4.48; pIC50 (Coagulation factor X): < 4.48; pIC50 [1]: < 4.48; pIC50 (Plasminogen): < 4.48; pIC50 (Neutrophil elastase): 5.65
O=C(Cc1ccccc1)NCc1ccc(C(=O)OCN2C(=O)c3ccccc3S2(=O)=O)cc1 | 132 nM | 
O=C(CCNC(=O)OCc1ccccc1)NCCC(=O)OCN1C(=O)c2ccccc2S1(=O)=O | > 33000 nM | 
O=C(OCN1C(=O)c2ccccc2S1(=O)=O)c1ccc(OCCOc2ccccc2)cc1 | > 33000 nM | 
O=C(Nc1ccc(C(=O)OCN2C(=O)c3ccccc3S2(=O)=O)cc1)OCc1ccccc1 | 64.3 nM | pIC50 (Prothrombin): < 4.48; pIC50 (Neutrophil elastase): 5.58
CC(C)(C)OC(=O)N[C@@H](CCCCNC(=O)OCc1ccccc1)C(=O)OCN1C(=O)c2ccccc2S1(=O)=O | 352 nM | 
CC(C)(C)OC(=O)NCCCCCC(=O)OCN1C(=O)c2ccccc2S1(=O)=O | 5370 nM | 
Nc1ccc(C(=O)OCN2C(=O)c3ccccc3S2(=O)=O)cc1 | > 33000 nM | 
